Experimental data published in ChEMBL document CHEMBL4138123, “Design, synthesis and biological evaluation of novel pyrazolochalcones as potential modulators of PI3K/Akt/mTOR pathway and inducers of apoptosis in breast cancer cells” (Eur J Med Chem, 2017).

Tests used:
Format in all cases: functional
MCF7 = assay: Cytotoxicity against human MCF7 cells assessed as cell growth at 0.01 uM after 48 hrs by sulforhodamine B assay relative to control; conditions: MCF7, 48 h, read-out: Activity
LOX IMVI = assay: Cytotoxicity against human LOXIMVI cells assessed as growth inhibition after 48 hrs by sulforhodamine B assay
MDA-MB-435 = assay: Cytotoxicity against human MDA-MB-435 cells assessed as cell growth at 1 uM after 48 hrs by sulforhodamine B assay relative to control; conditions: MDA-MB-435, 48 h, read-out: Activity
SR [1] = assay: Cytotoxicity against human SR cells assessed as cell growth at 1 uM after 48 hrs by sulforhodamine B assay relative to control; conditions: read-out: Activity
SK-MEL-5 = assay: Cytotoxicity against human SK-MEL-5 cells assessed as cell growth at 0.1 uM after 48 hrs by sulforhodamine B assay relative to control; conditions: SK-MEL-5, 48 h, read-out: Activity
OVCAR-3 = assay: Cytotoxicity against human OVCAR3 cells assessed as cell growth at 1 uM after 48 hrs by sulforhodamine B assay relative to control; conditions: OVCAR-3, 48 h, read-out: Activity
SK-MEL-28 [2] = assay: Cytotoxicity against human SK-MEL-28 cells assessed as cell growth at 100 uM after 48 hrs by sulforhodamine B assay relative to control; conditions: SK-MEL-28, 48 h, read-out: Activity
UACC-62 [3] = assay: Cytotoxicity against human UACC62 cells assessed as cell growth at 100 uM after 48 hrs by sulforhodamine B assay relative to control; conditions: UACC-62, 48 h, read-out: Activity
SF-539 [4] = assay: Cytotoxicity against human SF539 cells assessed as cell growth at 10 uM after 48 hrs by sulforhodamine B assay relative to control; conditions: SF-539, 48 h, read-out: Activity
IGROV-1 = assay: Cytotoxicity against human IGROV1 cells assessed as cell growth at 100 uM after 48 hrs by sulforhodamine B assay relative to control; conditions: IGROV-1, 48 h, read-out: Activity
HOP-62 = assay: Cytotoxicity against human HOP62 cells assessed as cell growth at 0.1 uM after 48 hrs by sulforhodamine B assay relative to control; conditions: HOP-62, 48 h, read-out: Activity
OVCAR-5 = assay: Cytotoxicity against human OVCAR5 cells assessed as cell growth at 1 uM after 48 hrs by sulforhodamine B assay relative to control; conditions: OVCAR-5, 48 h, read-out: Activity
MDA-MB-468 = assay: Cytotoxicity against human MDA-MB-468 cells assessed as cell growth at 10 uM after 48 hrs by sulforhodamine B assay relative to control; conditions: MDA-MB-468, 48 h, read-out: Activity
UO-31 [5] = assay: Cytotoxicity against human UO31 cells assessed as cell growth at 100 uM after 48 hrs by sulforhodamine B assay relative to control; conditions: UO-31, 48 h, read-out: Activity
Hs-578T [6] = assay: Cytotoxicity against human Hs 578T cells assessed as cell growth at 0.01 uM after 48 hrs by sulforhodamine B assay relative to control; conditions: read-out: Activity
HCT-116 [7] = assay: Cytotoxicity against human HCT116 cells assessed as cell growth at 0.01 uM after 48 hrs by sulforhodamine B assay relative to control; conditions: HCT-116, 48 h, read-out: Activity
M14 [8] = assay: Cytotoxicity against human M14 cells assessed as growth inhibition after 48 hrs by sulforhodamine B assay; conditions: M14, 48 h
T47D = assay: Cytotoxicity against human T47D cells assessed as cell growth at 0.01 uM after 48 hrs by sulforhodamine B assay relative to control; conditions: read-out: Activity
UO-31 [9] = assay: Cytotoxicity against human UO31 cells assessed as cell growth at 0.1 uM after 48 hrs by sulforhodamine B assay relative to control; conditions: UO-31, 48 h, read-out: Activity
Hs-578T [10] = assay: Cytotoxicity against human Hs 578T cells assessed as cell growth at 0.1 uM after 48 hrs by sulforhodamine B assay relative to control; conditions: read-out: Activity
UACC-62 [11] = assay: Cytotoxicity against human UACC62 cells assessed as cell growth at 0.1 uM after 48 hrs by sulforhodamine B assay relative to control; conditions: UACC-62, 48 h, read-out: Activity
NCI-H226 = assay: Cytotoxicity against human NCI-H226 cells assessed as cell growth at 0.1 uM after 48 hrs by sulforhodamine B assay relative to control; conditions: NCI-H226, 48 h, read-out: Activity
HCT-116 [12] = assay: Cytotoxicity against human HCT116 cells assessed as cell growth at 100 uM after 48 hrs by sulforhodamine B assay relative to control; conditions: HCT-116, 48 h, read-out: Activity
SNB-19 = assay: Cytotoxicity against human SNB19 cells assessed as cell growth at 100 uM after 48 hrs by sulforhodamine B assay relative to control; conditions: SNB-19, 48 h, read-out: Activity
SR [13] = assay: Cytotoxicity against human SR cells assessed as cell growth at 100 uM after 48 hrs by sulforhodamine B assay relative to control; conditions: read-out: Activity
A498 = assay: Cytotoxicity against human A498 cells assessed as cell growth at 10 uM after 48 hrs by sulforhodamine B assay relative to control; conditions: A498, 48 h, read-out: Activity
DU-145 = assay: Cytotoxicity against human DU145 cells assessed as growth inhibition after 48 hrs by sulforhodamine B assay; conditions: DU-145, 48 h; for CC50: read-out: LC50 (the source's name)
COLO 205 = assay: Cytotoxicity against human COLO205 cells assessed as cell growth at 10 uM after 48 hrs by sulforhodamine B assay relative to control; conditions: COLO 205, 48 h, read-out: Activity
SF-539 [14] = assay: Cytotoxicity against human SF539 cells assessed as growth inhibition after 48 hrs by sulforhodamine B assay; conditions: SF-539, 48 h
UACC-62 [15] = assay: Cytotoxicity against human UACC62 cells assessed as growth inhibition after 48 hrs by sulforhodamine B assay; conditions: UACC-62, 48 h
NCI-H522 = assay: Cytotoxicity against human NCI-H522 cells assessed as cell growth at 100 uM after 48 hrs by sulforhodamine B assay relative to control; conditions: NCI-H522, 48 h, read-out: Activity
HCC 2998 = assay: Cytotoxicity against human HCC2998 cells assessed as cell growth at 1 uM after 48 hrs by sulforhodamine B assay relative to control; conditions: HCC 2998, 48 h, read-out: Activity
M14 [16] = assay: Cytotoxicity against human M14 cells assessed as cell growth at 0.1 uM after 48 hrs by sulforhodamine B assay relative to control; conditions: M14, 48 h, read-out: Activity
SK-MEL-28 [17] = assay: Cytotoxicity against human SK-MEL-28 cells assessed as cell growth at 10 uM after 48 hrs by sulforhodamine B assay relative to control; conditions: SK-MEL-28, 48 h, read-out: Activity
MDA-MB-231 = assay: Cytotoxicity against human MDA-MB-231 cells assessed as growth inhibition after 48 hrs by sulforhodamine B assay; conditions: MDA-MB-231, 48 h
UO-31 [18] = assay: Cytotoxicity against human UO31 cells assessed as cell growth at 10 uM after 48 hrs by sulforhodamine B assay relative to control; conditions: UO-31, 48 h, read-out: Activity

## COc1ccc(C(=O)/C=C/c2cc(-c3ccc4c(c3)OCO4)n[nH]2)cc1OC
MCF7
  growth at 0.01 µM: 92%
LOX IMVI
  LC50: 8.46 µM
  TGI: 4.08 µM
MDA-MB-435
  growth at 1 µM: 96%
SR [1]
  growth at 1 µM: 57%
SK-MEL-5
  growth at 0.1 µM: 97%
OVCAR-3
  growth at 1 µM: 92%
SK-MEL-28 [2]
  growth at 100 µM: -89%
UACC-62 [3]
  growth at 100 µM: -94%
SF-539 [4]
  growth at 10 µM: -47%
IGROV-1
  growth at 100 µM: -59%
HOP-62
  growth at 0.1 µM: 99%
OVCAR-5
  growth at 1 µM: 86%
MDA-MB-468
  growth at 10 µM: -45%
UO-31 [5]
  growth at 100 µM: -93%
Hs-578T [6]
  growth at 0.01 µM: 96%
HCT-116 [7]
  growth at 0.01 µM: 105%
M14 [8]
  LC50 (concentration killing 50% of cells): 58.4 µM
  TGI: 21.4 µM
T47D
  growth at 0.01 µM: 90%
UO-31 [9]
  growth at 0.1 µM: 81%
Hs-578T [10]
  growth at 0.1 µM: 92%
UACC-62 [11]
  growth at 0.1 µM: 100%
NCI-H226
  growth at 0.1 µM: 93%
HCT-116 [12]
  growth at 100 µM: -64%
SNB-19
  growth at 100 µM: -95%
SR [13]
  growth at 100 µM: -35%
A498
  growth at 10 µM: -43%
DU-145
  GI50: 1.86 µM
  TGI: 4.27 µM
  CC50: 9.8 µM
COLO 205
  growth at 10 µM: 14%
SF-539 [14]
  LC50 (concentration killing 50% of cells): 11.9 µM
  TGI: 4.47 µM
UACC-62 [15]
  LC50: 40.9 µM
  TGI: 14.8 µM
NCI-H522
  growth at 100 µM: -89%
HCC 2998
  growth at 1 µM: 104%
M14 [16]
  growth at 0.1 µM: 98%
SK-MEL-28 [17]
  growth at 10 µM: 36%
MDA-MB-231
  GI50: 2.44 µM
  LC50: 31.7 µM
  TGI: 7.39 µM

## COc1cc(C(=O)/C=C/c2cc(-c3ccc4c(c3)OCO4)n[nH]2)cc(OC)c1OC
UO-31 [18]
  growth at 10 µM: -96%
MCF7
  growth at 0.01 µM: 89%
MDA-MB-435
  growth at 1 µM: 94%
SR [1]
  growth at 1 µM: 56%
SK-MEL-5
  growth at 0.1 µM: 95%
OVCAR-3
  growth at 1 µM: 87%
SK-MEL-28 [2]
  growth at 100 µM: -96%
UACC-62 [3]
  growth at 100 µM: -96%
SF-539 [4]
  growth at 10 µM: -75%
IGROV-1
  growth at 100 µM: -90%
HOP-62
  growth at 0.1 µM: 95%
OVCAR-5
  growth at 1 µM: 87%
MDA-MB-468
  growth at 10 µM: -57%
UO-31 [5]
  growth at 100 µM: -95%
Hs-578T [6]
  growth at 0.01 µM: 92%
HCT-116 [7]
  growth at 0.01 µM: 101%
M14 [8]
  GI50: 2.91 µM
  LC50 (concentration killing 50% of cells): 37.8 µM
  TGI: 9.21 µM
T47D
  growth at 0.01 µM: 90%
UO-31 [9]
  growth at 0.1 µM: 82%
Hs-578T [10]
  growth at 0.1 µM: 90%
UACC-62 [11]
  growth at 0.1 µM: 97%
NCI-H226
  growth at 0.1 µM: 93%
HCT-116 [12]
  growth at 100 µM: -47%
SNB-19
  growth at 100 µM: -97%
SR [13]
  growth at 100 µM: -17%
A498
  growth at 10 µM: -39%
DU-145
  GI50: 2.92 µM
  TGI: 9.16 µM
  CC50: 31.4 µM
COLO 205
  growth at 10 µM: -47%
SF-539 [14]
  GI50: 1.33 µM
  LC50 (concentration killing 50% of cells): 6.65 µM
  TGI: 2.98 µM
UACC-62 [15]
  GI50: 1.81 µM
  LC50: 8.36 µM
  TGI: 3.89 µM
NCI-H522
  growth at 100 µM: -94%
HCC 2998
  growth at 1 µM: 100%
M14 [16]
  growth at 0.1 µM: 93%
SK-MEL-28 [17]
  growth at 10 µM: -56%
MDA-MB-231
  GI50: 2.08 µM
  LC50: 23.8 µM
  TGI: 6.23 µM
